Experimental data taken from PubChem BioAssay AID248 (DTP/NCI, 2004).
Where “and” joins values, the source holds several entries; their conditions need not be identical. Identical values can stand only once. Toxic doses and inconclusive results are not listed. No stated cut-off is given here; in the data, active means T/C of 150% or more; inactive means T/C below 125%.

Tested on: L1210 leukemia ip in BDF1 mice, survival T/C
Experiment: NCI In Vivo Anticancer Drug Screen. Data for tumor model L1210 Leukemia (intraperitoneal) in B6D2F1 (BDF1) mice
Conditions: endpoint: mean survival time, higher = longer survival
Procedure, shortened: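 Value reflects the ratio of survival in compound-treated mice to survival in vehicle-treated controls, with both groups carrying the same transplanted tumor.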

[1] = dose: 25.0 mg/kg/injection, schedule: Q01DX009 (ip), vehicle: saline with Tween-80
[2] = dose: 25.0 mg/kg/injection, schedule: Q04DX003 (ip), vehicle: saline with Tween-80
[3] = dose: 100.0 mg/kg/injection, schedule: Q04DX003 (ip), vehicle: saline with Tween-80
[4] = dose: 100.0 mg/kg/injection, schedule: Q01DX009 (ip), vehicle: Klucel (hydroxypropylcellulose) (HPC)
[5] = dose: 100.0 mg/kg/injection, schedule: Q04DX003 (ip), vehicle: Klucel (hydroxypropylcellulose) (HPC)
[6] = dose: 200.0 mg/kg/injection, schedule: Q01DX009 (ip), vehicle: Klucel (hydroxypropylcellulose) (HPC)
[7] = dose: 200.0 mg/kg/injection, schedule: Q04DX003 (ip), vehicle: Klucel (hydroxypropylcellulose) (HPC)
[8] = dose: 400.0 mg/kg/injection, schedule: Q01DX009 (ip), vehicle: Klucel (hydroxypropylcellulose) (HPC)
[9] = dose: 400.0 mg/kg/injection, schedule: Q04DX003 (ip), vehicle: Klucel (hydroxypropylcellulose) (HPC)
[10] = dose: 100.0 mg/kg/injection, schedule: Q01DX001 (ip), vehicle: saline
[11] = dose: 200.0 mg/kg/injection, schedule: Q01DX001 (ip), vehicle: saline
[12] = dose: 400.0 mg/kg/injection, schedule: Q01DX001 (ip), vehicle: saline
[13] = dose: 50.0 mg/kg/injection, schedule: Q01DX009 (ip), vehicle: saline with Tween-80
[14] = dose: 100.0 mg/kg/injection, schedule: Q01DX009 (ip), vehicle: saline with Tween-80
[15] = dose: 200.0 mg/kg/injection, schedule: Q01DX001 (ip), vehicle: saline with Tween-80
[16] = dose: 400.0 mg/kg/injection, schedule: Q01DX001 (ip), vehicle: saline with Tween-80
[17] = dose: 100.0 mg/kg/injection, schedule: Q01DX001 (ip), vehicle: saline with Tween-80
[18] = dose: 100.0 mg/kg/injection, schedule: Q04DX003 (ip), vehicle: saline
[19] = dose: 200.0 mg/kg/injection, schedule: Q01DX009 (ip), vehicle: saline with Tween-80

Measured: T/C

CC(=O)c1cc(I)c(O)c2ncccc12
inactive: dose: 6.25 mg/kg/injection, schedule: Q01DX009 (ip), vehicle: saline with Tween-80 91 % of control | dose: 6.25 mg/kg/injection, schedule: Q04DX003 (ip), vehicle: saline with Tween-80 95 % of control | dose: 12.5 mg/kg/injection, schedule: Q01DX009 (ip), vehicle: saline with Tween-80 91 % of control | dose: 12.5 mg/kg/injection, schedule: Q04DX003 (ip), vehicle: saline with Tween-80 106 % of control | [1] 89 % of control | [2] 116 % of control and 91 % of control | [3] 107 % of control

CC1(C)CC(=O)C=C(N)C1
inactive: [3] 97 % of control | dose: 200.0 mg/kg/injection, schedule: Q04DX003 (ip), vehicle: saline with Tween-80 92 % of control | dose: 400.0 mg/kg/injection, schedule: Q04DX003 (ip), vehicle: saline with Tween-80 95 % of control

O=[N+]([O-])c1cccc(S(=O)(=O)N2CCN(S(=O)(=O)c3cccc([N+](=O)[O-])c3)C2)c1
inactive: [4] 95 % of control | [5] 97 % of control | [6] 103 % of control | [7] 93 % of control | [8] 97 % of control | [9] 97 % of control

O=C(O)C1CCCCN1O (configuration not stated)
inactive: [10] 102 % of control | [11] 104 % of control | [12] 104 % of control

Nc1nc(O)c(N2C(=O)c3ccccc3C2=O)c(=O)[nH]1
inactive: dose: 25.0 mg/kg/injection, schedule: Q04DX003 (ip), vehicle: Klucel (hydroxypropylcellulose) (HPC) 93 % of control | dose: 50.0 mg/kg/injection, schedule: Q04DX003 (ip), vehicle: Klucel (hydroxypropylcellulose) (HPC) 96 % of control | [5] 96 % of control

O=C(C[n+]1ccc(/C=N\O)cc1)c1ccc(-c2ccc(C(=O)C[n+]3ccc(/C=N/O)cc3)cc2)cc1
inactive: dose: 100.0 mg/kg/injection, schedule: Q04DX002 (ip), vehicle: Klucel (hydroxypropylcellulose) (HPC) 103 % of control | dose: 200.0 mg/kg/injection, schedule: Q04DX002 (ip), vehicle: Klucel (hydroxypropylcellulose) (HPC) 100 % of control | dose: 400.0 mg/kg/injection, schedule: Q04DX002 (ip), vehicle: Klucel (hydroxypropylcellulose) (HPC) 92 % of control

CC1(NCCOC(=O)c2ccc(N)cc2)CCCCC1
inactive: dose: 75.0 mg/kg/injection, schedule: Q01DX001 (ip), vehicle: saline 100 % of control | dose: 150.0 mg/kg/injection, schedule: Q01DX001 (ip), vehicle: saline 100 % of control

C#CC(OC(=O)NC)(c1ccccc1)c1ccc(OC)cc1 (configuration not stated)
inactive: dose: 6.25 mg/kg/injection, schedule: Q01DX009 (ip), vehicle: Klucel (hydroxypropylcellulose) (HPC) 112 % of control | dose: 11.0 mg/kg/injection, schedule: Q01DX006 (ip), vehicle: Klucel (hydroxypropylcellulose) (HPC) 120 % of control | dose: 12.5 mg/kg/injection, schedule: Q01DX009 (ip), vehicle: Klucel (hydroxypropylcellulose) (HPC) 114 % of control | dose: 25.0 mg/kg/injection, schedule: Q01DX006 (ip), vehicle: Klucel (hydroxypropylcellulose) (HPC) 115 % of control | dose: 37.0 mg/kg/injection, schedule: Q01DX006 (ip), vehicle: Klucel (hydroxypropylcellulose) (HPC) 109 % of control | dose: 50.0 mg/kg/injection, schedule: Q01DX009 (ip), vehicle: Klucel (hydroxypropylcellulose) (HPC) 119 % of control | [5] 111 % of control

C=C1C2CCC(C2)C1(C)CC/C=C(/C)CO (configuration not stated) (tested in a mixture with another compound)
inactive: [5] 96 % of control | [7] 96 % of control | [9] 93 % of control

OC1CCCCCC2CC12 (configuration not stated)
inactive: dose: 25.0 mg/kg/injection, schedule: Q01DX005 (ip), vehicle: saline with Tween-80 86 % of control | [1] 98 % of control | dose: 50.0 mg/kg/injection, schedule: Q01DX005 (ip), vehicle: saline with Tween-80 101 % of control | [13] 91 % of control | dose: 100.0 mg/kg/injection, schedule: Q01DX005 (ip), vehicle: saline with Tween-80 89 % of control and 90 % of control | [14] 91 % of control

CC(C)(C)OOC(=O)Nc1ccc(Cl)cc1
inactive: [15] 89 % of control | [16] 92 % of control

O=C1C=CC(=O)C2C3C=CC(CC3)C12 (configuration not stated)
inactive: [10] 107 % of control | [11] 98 % of control | [12] 98 % of control

O=S(=O)(CCCS(=O)(=O)Nc1ccccc1)Nc1ccccc1
inactive: [17] 103 % of control | [15] 97 % of control | [16] 90 % of control

O=C(/C=C/c1ccccc1)Nc1ccccc1C(F)(F)F
inactive: [4] 98 % of control | [6] 104 % of control | [8] 101 % of control

CSc1ccccc1C(=O)O
inactive: dose: 50.0 mg/kg/injection, schedule: Q01DX001 (ip), vehicle: carboxymethylcellulose (CMC) 100 % of control | dose: 100.0 mg/kg/injection, schedule: Q01DX001 (ip), vehicle: carboxymethylcellulose (CMC) 100 % of control | [4] 97 % of control | [5] 103 % of control | dose: 200.0 mg/kg/injection, schedule: Q01DX001 (ip), vehicle: carboxymethylcellulose (CMC) 94 % of control | [6] 95 % of control | [7] 94 % of control | dose: 400.0 mg/kg/injection, schedule: Q01DX001 (ip), vehicle: carboxymethylcellulose (CMC) 96 % of control | [8] 100 % of control | [9] 110 % of control

CN=C1CN(O)C(c2ccccc2)=c2cc(Cl)ccc2=N1
inactive: dose: 25.0 mg/kg/injection, schedule: Q01DX009 (ip), vehicle: acetone 96 % of control | dose: 25.0 mg/kg/injection, schedule: Q04DX003 (ip), vehicle: saline 97 % of control | dose: 50.0 mg/kg/injection, schedule: Q01DX009 (ip), vehicle: acetone 90 % of control | dose: 50.0 mg/kg/injection, schedule: Q04DX003 (ip), vehicle: saline 97 % of control | [10] 92 % of control | dose: 100.0 mg/kg/injection, schedule: Q01DX009 (ip), vehicle: acetone 102 % of control | [18] 92 % of control | [11] 96 % of control | dose: 200.0 mg/kg/injection, schedule: Q01DX009 (ip), vehicle: acetone 97 % of control | dose: 200.0 mg/kg/injection, schedule: Q04DX003 (ip), vehicle: saline 97 % of control

C=CC1(O)CCCC1
inactive: [13] 100 % of control | [14] 107 % of control | [19] 96 % of control

Cc1ccc(NC(=O)Nc2ccc(C)c(NC(=O)Nc3ccc(C)c(Cl)c3)c2)cc1Cl
inactive: [13] 90 % of control | [14] 88 % of control | [3] 88 % of control | [19] 94 % of control

O=[N+]([O-])c1cccc(CS(=O)(=O)c2ccccc2)c1-c1c(CS(=O)(=O)c2ccccc2)cccc1[N+](=O)[O-]
inactive: dose: 100.0 mg/kg/injection, schedule: Q04DX003 (ip), vehicle: saline sonified 101 % of control | dose: 200.0 mg/kg/injection, schedule: Q04DX003 (ip), vehicle: saline sonified 95 % of control | dose: 400.0 mg/kg/injection, schedule: Q04DX003 (ip), vehicle: saline sonified 94 % of control

CCOC(=O)CC(c1cccc2ccccc12)c1cccc2ccc3ccccc3c12 (configuration not stated)
inactive: [5] 92 % of control | [7] 86 % of control | [9] 91 % of control

NC(=O)CN1C(=O)C2C3CCC(O3)C2C1=O (configuration not stated)
inactive: [2] 89 % of control | dose: 50.0 mg/kg/injection, schedule: Q04DX003 (ip), vehicle: saline with Tween-80 89 % of control | [3] 96 % of control | [18] 107 % of control | dose: 400.0 mg/kg/injection, schedule: Q04DX003 (ip), vehicle: saline 95 % of control

O=C(O)c1ccccc1C(=O)c1ccc(Cl)cc1
inactive: [4] 100 % of control | [6] 86 % of control | [8] 100 % of control

Cc1cc(N(CCOS(C)(=O)=O)CCOS(C)(=O)=O)ccc1C=Nc1cccc(Cl)c1
inactive: dose: 20.0 mg/kg/injection, schedule: Q04DX003 (ip), vehicle: Klucel (hydroxypropylcellulose) (HPC) 107 % of control | dose: 40.0 mg/kg/injection, schedule: Q04DX003 (ip), vehicle: Klucel (hydroxypropylcellulose) (HPC) 115 % of control | dose: 80.0 mg/kg/injection, schedule: Q04DX003 (ip), vehicle: Klucel (hydroxypropylcellulose) (HPC) 107 % of control | [5] 120 % of control

O=C(O)CC1CCCCC1NC(=O)c1ccccc1 (configuration not stated)
inactive: [17] 100 % of control | [15] 94 % of control | [16] 95 % of control
